The source of these data is US20140228293A1, “PARATHYROID HORMONE ANALOGS, COMPOSITIONS AND USES THEREOF” (THE GENERAL HOSPITAL CORPORATION, priority 2011, published 2014).

Like-named read-outs stand apart in the source and are kept apart here.

The nature of the data set: Stability study by HPLC-MS under ambient conditions. It is filed as physicochemical. An excerpt: High performance liquid chromatography-mass spectroscopy (HPLC-MS) was used to monitor the degradation of four synthetic compounds over a period of time.
[1] abbreviates: room temperature, air, water solution, neutral pH, HPLC-MS.

In the case of “[Nle^8,18]hPTH(1-37) [[Nle^8,11]hPTH(1-37)]”, the “degradation after 7 days (estimated based on UV signal)” value (“degradation after 7 days” below) under setting [1] is “about 70%”.

As to “[Nle^8,18]hPTH(1-84) [[Nle^8,11]hPTH(1-84)]”, the “degradation after 7 days” value is “less than 10%”.

Regarding “hPTH(1-37) (SVSEIQLMHNLGKHLNSMERVEWLRKKLQDVHNFVAL)”, the “degradation after 7 days” value under setting [1] is given as “about 70%”.
